Measurements from patent US6825202B2, “Arylsulfonyl derivatives with 5-HT6 receptor affinity” (Syntex (U.S.A.) LLC, priority 2001, dated 2004).
Where a name gives a salt, the structure may show the parent alone.

melting point | Structure (SMILES)
279.9 to 283.3 °C | COc1ccc(S(=O)(=O)c2ccc3ccccc3c2)cc1N1CCNCC1
263.4 to 272.1 °C | COc1ccc(S(=O)(=O)c2ccc(Cl)cc2)cc1N1CCNCC1
265 to 266.3 °C | COc1ccc(S(=O)(=O)c2cccc(Cl)c2)cc1N1CCNCC1
245.9 to 246.2 °C | COc1ccc(S(=O)(=O)c2cc(Cl)cc(Cl)c2)cc1N1CCNCC1
246 to 250.1 °C | COc1ccc(S(=O)(=O)c2cccc(F)c2)cc1N1CCNCC1
235.5 to 236 °C | COc1ccc(S(=O)(=O)c2ccc(Cl)cc2)cc1C1CCNCC1 (as salt: hydrochloride) [compound 301, 4-[5-(4-chloro-benzenesulfonyl)2methoxy-phenyl] piperidine]
155 to 159 °C | COc1ccc(S(=O)(=O)c2ccc(F)c3ccccc23)cc1N1CCNCC1 (as salt: hydrochloride) [compound 401, 1-[5-(4-fluoro-naphthalene-1-sulfonyl)2-methoxyphenyl]piperazine]
